Columns and labels:
HDAC3 = HDAC3 (Homo sapiens (Human), UniProt O15379); experiment: HDAC subtype inhibitory activity (HTRF), HDAC3; format: biochemical
Method: Human recombinant HDAC family proteins with His and GST tags were expressed using insect baculovirus expression system, and a biologically active HDAC family recombinant protein was obtained through Ni affinity column protein purification. HTRF detection method was used with H3(1-21) K9Ac biotin as the substrate. […] Briefly, 20 μl of the activity testing system included the HDAC substrate (0.2 μM. 4 μl), the Human Recombinant Protein HDAC (2-5 ng)/μl.

WILL-1 = experiment: Antiproliferative activity, CCK-8, WILL-1; format: cell-based; conditions: WILL-1, Diffuse large B-cell lymphoma; read-out: Cytotoxicity (IC50 μM)
Method: (§1) The tumor cells used were purchased from commercial cell banks (HCT116 purchased from ATCC, SKM 1 purchased from JCRB). The growth inhibition of cells was detected using the CCK-8 method. The specific steps were as follows. Cells in the logarithmic growth phase were seeded into a 96 well culture plate at an appropriate density, with 90 μL/well. After overnight cultivation, different concentrations of drugs were added for treatment for 72 h, with each concentration in triplicate, and corresponding concentration of vehicle control and cell-free blank wells were also set. After the treatment, 10 μL of CCK-8 was added to each well and the plate was incubated in an incubator for 2-4 hours, and the optical density (OD value) at a wavelength of 450 nm was measured using a SpectraMax 190 microplate reader. […] The experiment was repeated twice, and the mean value and SD were calculated.
(§2) The testing method for antiproliferative activity was the same as that mentioned in Pharmacological Experiment Example 2, and the results are shown in Table 4 and FIGS. 2-3.

OCI-AML3 = experiment: Antiproliferative activity, CCK-8, OCI-AML3; format: cell-based; conditions: OCI-AML3, Human acute myeloid leukemia; read-out: Cytotoxicity (IC50 μM)
Method: as §1, §2

EoL-1 = experiment: Antiproliferative activity, CCK-8, EoL-1; format: cell-based; conditions: EoL-1, Chronic eosinophilic leukemia; read-out: Cytotoxicity (IC50 μM)
Method: as §1, §2

U-2932 = experiment: Antiproliferative activity, CCK-8, U-2932; format: cell-based; conditions: U-2932, Diffuse large B-cell lymphoma; read-out: Cytotoxicity (IC50 μM)
Method: as §1, §2

HH = experiment: Antiproliferative activity, CCK-8, HH; format: cell-based; conditions: Primary cutaneous T-cell non Hodgkin lymphoma, read-out: Cytotoxicity (IC50 μM)
Method: as §1, §2

NU-DHL-1 = experiment: Antiproliferative activity, CCK-8, NU-DHL-1; format: cell-based; conditions: NU-DHL-1, Diffuse large B-cell lymphoma; read-out: Cytotoxicity (IC50 μM)
Method: as §1, §2

Z138 = experiment: Antiproliferative activity, CCK-8, Z138; format: cell-based; conditions: Z138, Human mantle cell lymphoma; read-out: Cytotoxicity (IC50 μM)
Method: as §1, §2

REC-1 = experiment: Antiproliferative activity, CCK-8, REC-1; format: cell-based; conditions: REC-1, Human mantle cell lymphoma; read-out: Cytotoxicity (IC50 μM)
Method: as §1, §2

RS4; 11 = experiment: Antiproliferative activity, CCK-8, RS4; 11; format: cell-based; conditions: 11, Acute lymphoblastic leukemia, read-out: Cytotoxicity (IC50 μM)
Method: as §1, §2

MO-91 = experiment: Antiproliferative activity, CCK-8, MO-91; format: cell-based; conditions: MO-91, Acute myeloid leukemia; read-out: Cytotoxicity (IC50 μM)
Method: as §1, §2

OPM-2 = experiment: Antiproliferative activity, CCK-8, OPM-2; format: cell-based; conditions: OPM-2, Human multiple myeloid leukemia; read-out: Cytotoxicity (IC50 μM)
Method: as §1, §2

SU-DHL-8 = experiment: Antiproliferative activity, CCK-8, SU-DHL-8; format: cell-based; conditions: SU-DHL-8, Diffuse large B-cell lymphoma; read-out: Cytotoxicity (IC50 μM)
Method: as §1, §2

NOMO-1 = experiment: Antiproliferative activity, CCK-8, NOMO-1; format: cell-based; conditions: NOMO-1, Acute monocytic leukemia; read-out: Cytotoxicity (IC50 μM)
Method: as §1, §2

SU-DHL-6 = experiment: Antiproliferative activity, CCK-8, SU-DHL-6; format: cell-based; conditions: SU-DHL-6, Diffuse large B-cell lymphoma; read-out: Cytotoxicity (IC50 μM)
Method: as §1, §2

MOLP-8 = experiment: Antiproliferative activity, CCK-8, MOLP-8; format: cell-based; conditions: MOLP-8, Human multiple myeloma; read-out: Cytotoxicity (IC50 μM)
Method: as §1, §2

H9 = experiment: Antiproliferative activity, CCK-8, H9; format: cell-based; conditions: H9, Human T lymphocyte line; read-out: Cytotoxicity (IC50 μM)
Method: as §1, §2

HuT78 = experiment: Antiproliferative activity, CCK-8, HuT78; format: cell-based; conditions: HuT78, Human T-lymphocytic leukemia; read-out: Cytotoxicity (IC50 μM)
Method: as §1, §2

PC-9 = experiment: Antiproliferative activity, CCK-8, PC-9; format: cell-based; conditions: PC-9, Lung cancer; read-out: Cytotoxicity (IC50 μM)
Method: as §1, §2

CAKI-1 = experiment: Antiproliferative activity, CCK-8, CAKI-1; format: cell-based; conditions: CAKI-1, Renal cell carcinoma; read-out: Cytotoxicity (IC50 μM)
Method: as §1, §2

SNU-16 = experiment: Antiproliferative activity, CCK-8, SNU-16; format: cell-based; conditions: SNU-16, gastric cancer; read-out: Cytotoxicity (IC50 μM)
Method: as §1, §2

SNU-5 = experiment: Antiproliferative activity, CCK-8, SNU-5; format: cell-based; conditions: SNU-5, Gastric cancer; read-out: Cytotoxicity (IC50 μM)
Method: as §1, §2

SK-BR-3 = experiment: Antiproliferative activity, CCK-8, SK-BR-3; format: cell-based; conditions: SK-BR-3, Breast cancer; read-out: Cytotoxicity (IC50 μM)
Method: as §1, §2

MDA-MB-453 = experiment: Antiproliferative activity, CCK-8, MDA-MB-453; format: cell-based; conditions: MDA-MB-453, Breast cancer; read-out: Cytotoxicity (IC50 μM)
Method: as §1, §2

A375 = experiment: Antiproliferative activity, CCK-8, A375; format: cell-based, human; conditions: A375, Melanoma; read-out: Cytotoxicity (IC50 μM)
Method: as §1, §2

A2058 = experiment: Antiproliferative activity, CCK-8, A2058; format: cell-based; conditions: A2058, Melanoma; read-out: Cytotoxicity (IC50 μM)
Method: as §1, §2

VMM5A = experiment: Antiproliferative activity, CCK-8, VMM5A; format: cell-based; conditions: Melanoma, read-out: Cytotoxicity (IC50 μM)
Method: as §1, §2

SK-MEL-2 = experiment: Antiproliferative activity, CCK-8, SK-MEL-2; format: cell-based; conditions: SK-MEL-2, Melanoma; read-out: Cytotoxicity (IC50 μM)
Method: as §1, §2

[1] = system: human acute myeloid leukemia cells OCI-AML-3 transplanted tumor; experiment: OCI-AML-3 NOD/SCID mice transplanted tumor model; format: in vivo; conditions: oral 60 mg/kg

Chain of HDAC3 (O15379 whole entry): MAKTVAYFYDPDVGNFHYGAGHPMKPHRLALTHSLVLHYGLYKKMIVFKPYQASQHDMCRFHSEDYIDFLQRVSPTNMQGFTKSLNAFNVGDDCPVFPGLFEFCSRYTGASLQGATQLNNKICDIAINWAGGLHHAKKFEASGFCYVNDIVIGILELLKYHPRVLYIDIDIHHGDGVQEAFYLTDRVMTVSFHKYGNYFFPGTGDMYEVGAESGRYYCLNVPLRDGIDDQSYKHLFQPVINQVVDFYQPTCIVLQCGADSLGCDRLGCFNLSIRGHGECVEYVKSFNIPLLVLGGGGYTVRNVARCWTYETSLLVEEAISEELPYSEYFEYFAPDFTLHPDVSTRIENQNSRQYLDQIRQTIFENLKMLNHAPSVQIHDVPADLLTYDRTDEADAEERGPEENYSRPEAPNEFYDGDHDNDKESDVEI
Chain of HDAC3 (Q9Y618 395-489 partner): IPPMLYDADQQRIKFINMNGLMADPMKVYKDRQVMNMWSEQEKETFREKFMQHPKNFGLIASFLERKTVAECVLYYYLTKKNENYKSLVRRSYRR

`C[C@@H](c1ccc(C(=O)Nc2ccc(F)cc2N)cc1)n1nc(-c2ccc(CN(C)C)cc2)ccc1=O` [Compound I-1] was tested, and the IC50 (HDAC3) was 420 ± 105 nM, the IC50 (WILL-1) was 0.116 ± 0.006 µM and the IC50 (OCI-AML3) was 0.121 ± 0.003 µM. It also gave an IC50 (EoL-1) of 0.158 µM, an IC50 (U-2932) of 0.214 ± 0.001 µM and an IC50 (HH) of 0.219 ± 0.093 µM. It also gave an IC50 (NU-DHL-1) of 0.243 µM, an IC50 (Z138) of 0.363 ± 0.046 µM and an IC50 (REC-1) of 0.381 µM. It also gave an IC50 (RS4; 11) of 0.412 ± 0.129 µM, an IC50 (MO-91) of 0.427 ± 0.163 µM and an IC50 (OPM-2) of 0.436 ± 0.222 µM. The IC50 (SU-DHL-8) was 0.443 ± 0.185 µM, the IC50 (NOMO-1) was 0.523 ± 0.12 µM and the IC50 (SU-DHL-6) was 0.576 ± 0.066 µM. The IC50 (MOLP-8) was 0.632 ± 0.066 µM, the IC50 (H9) was 0.649 ± 0.044 µM and the IC50 (HuT78) was 0.769 ± 0.461 µM. It also gave an IC50 (PC-9) of 0.461 ± 0.034 µM, an IC50 (CAKI-1) of 0.594 ± 0.011 µM and an IC50 (SNU-16) of 0.675 ± 0.064 µM. The IC50 (SNU-5) was 0.314 ± 0.011 µM, the IC50 (SK-BR-3) was 0.72 ± 0.032 µM and the IC50 (MDA-MB-453) was 0.498 ± 0.036 µM. It also gave an IC50 (A375) of 0.556 ± 0.018 µM, an IC50 (A2058) of 0.562 ± 0.011 µM and an IC50 (VMM5A) of 0.856 ± 0.018 µM. For the same compound, the IC50 (SK-MEL-2) was 0.799 ± 0.042 µM, the “relative tumor proliferation rate (T/C)” value ([1]; OCI-AML-3 transplanted tumor, 14 days) was 7.75% and the “body weight of mice” value ([1]; during the transplanted tumor experiment) was “remained basically unchanged”.

From patent US20240150300A1, “S-CONFIGURATION-CONTAINING AMINO BENZAMIDE PYRIDAZINONE COMPOUND, PREPARATION METHOD THEREFOR, AND PHARMACEUTICAL COMPOSITION AND APPLICATION THEREOF” (SHANGHAI INSTITUTE OF MATERIA MEDICA, CHINESE ACADEMY OF …, priority 2021, published 2024)
